According to patent US20020137929A1, “1 - (3-heterocyclylphenyl) isothiourea, -isourea, -guanidine and -amidine herbicidal agents” (Intellectual Property Department, BASF Aktiengesellschaft, priority 1998, published 2002):

Legend:
[1] = test system: TRZAWR (Wheat, Winter, cv Riband); test: Postemergence herbicidal evaluation; assay type: in vivo, Triticum aestivum
Outline: (§1)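 Visual 0–9 rating versus control (stand, vigor, malformation, size, chlorosis, overall appearance), taken four to five weeks post-spray. Two-week-old seedlings received roughly 0.0156–0.500 kg/ha active in acetone/water (50/50) with 0.5% TWEEN 20 via nozzle at 40 psi.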

CASOB (Sicklepod) = test: Preemergence herbicidal evaluation; assay type: in vivo, Cassia obtusifolia; settings: rated 4-5 weeks after treatment
Outline: (§2)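 Herbicidal effect scored visually, 0-9, at 4 to 5 weeks against a control; compound applied preemergence by aqueous acetone spray to seeded soil at about 0.0156 to 0.500 kg/ha.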

SETVI (Foxtail, Green) = test: Postemergence herbicidal evaluation; assay type: in vivo, Setaria viridis
Outline: as §1

ECHCG (Barnyardgrass) [2] = test: Preemergence herbicidal evaluation; assay type: in vivo, Echinochloa crus-galli; settings: rated 4-5 weeks after treatment
Outline: as §2

AMBEL (Ragweed, Common) = test: Postemergence herbicidal evaluation; assay type: in vivo, Ambrosia artemisifolia
Outline: as §1

GALAP (Galium) = test: Preemergence herbicidal evaluation; assay type: in vivo, Galium aparine; settings: rated 4-5 weeks after treatment
Outline: as §2

[3] = test system: IPOHE (Morningglory, Ivyleaf); test: Preemergence herbicidal evaluation; assay type: in vivo, Ipomoea hederacea; settings: rated 4-5 weeks after treatment
Outline: as §2

[4] = test system: ECHORC (Watergrass (Calif.)); test: Postemergence weed control under flooded paddy conditions; assay type: in vivo, Echinochloa oryzoides; settings: postemergence weeds, rated 3 to 4 weeks after treatment
Outline: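 Herbicidal effect is judged by eye on a 0–9 scale versus control, 3–4 weeks after dosing. Dosing is into flood water kept 1.5–3 cm over the soil, at about 0.0313–0.500 kg/ha in aqueous/acetone 50/50 v/v, on 3–5 cm weeds and 1.5–2.5-leaf rice seedlings.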

ABUTH (Velvetleaf) = test: Postemergence herbicidal evaluation; assay type: in vivo, Abutilon theophrasti
Outline: as §1

[5] = test system: GLXMAW (Soybean, Williams); test: Postemergence herbicidal evaluation; assay type: in vivo, Glycine max, (L.) Merr. cv Williams
Outline: as §1

[6] = test system: IPOHE (Morningglory, Ivyleaf); test: Postemergence herbicidal evaluation; assay type: in vivo, Ipomoea hederacea
Outline: as §1

[7] = test system: CHEAL (Lambsquarters, Common); test: Preemergence herbicidal evaluation; assay type: in vivo, Chenopodium album; settings: rated 4-5 weeks after treatment
Outline: as §2

ZEAMX (Corn, Field) = test: Preemergence herbicidal evaluation; assay type: in vivo, Zea mays; settings: rated 4-5 weeks after treatment
Outline: as §2

ECHCG (Barnyardgrass) [8] = test: Postemergence herbicidal evaluation; assay type: in vivo, Echinochloa crus-galli
Outline: as §1

In the case of `CCOC(=O)CN1C(=O)C(CC(=O)OC(C)C)SC1=Nc1cc(-n2c(=O)cc(C(F)(F)F)n(C)c2=O)c(F)cc1Cl` (stereo not drawn) [Compound 60, 2-{{2-Chloro-5-[3,6-dihydro-3-methyl-2,6-dioxo-4-(trifluoromethyl)-1(2H)-pyrimidinyl]-4-fluoro-phenyl}imino}-4-oxo-3,5-thiazolidinediacetic acid, 3-ethyl isopropyl ester], the “Postemergence herbicidal rating TRZAWR” value ([1]; Rate 0.0158 kg/ha) is reported as 4.5, the “Postemergence herbicidal rating TRZAWR” value ([1]; Rate 0.0315 kg/ha) is reported as 4.5 and the “Postemergence herbicidal rating TRZAWR” value ([1]; Rate 0.0630 kg/ha) is reported as 4.5. The “Preemergence herbicidal rating CASOB” value (CASOB (Sicklepod); rate 0.0156 kg/ha) was 0.0, the “Preemergence herbicidal rating CASOB” value (CASOB (Sicklepod); rate 0.0313 kg/ha) was 0.0 and the “Preemergence herbicidal rating CASOB” value (CASOB (Sicklepod); rate 0.0625 kg/ha) was 0.0. The “Preemergence herbicidal rating CASOB” value (CASOB (Sicklepod); rate 0.1250 kg/ha) was 1.0, the “Preemergence herbicidal rating CASOB” value (CASOB (Sicklepod); rate 0.2500 kg/ha) was 5.5 and the “Preemergence herbicidal rating CASOB” value (CASOB (Sicklepod); rate 0.5000 kg/ha) was 4.0. For the same compound, the “Postemergence herbicidal rating SETVI” value (SETVI (Foxtail, Green); Rate 0.0158 kg/ha) was 0.0, the “Postemergence herbicidal rating SETVI” value (SETVI (Foxtail, Green); Rate 0.0315 kg/ha) was 4.0 and the “Postemergence herbicidal rating SETVI” value (SETVI (Foxtail, Green); Rate 0.0630 kg/ha) was 5.0. For the same compound, the “Preemergence herbicidal rating ECHCG” value (ECHCG (Barnyardgrass) [2]; rate 0.0156 kg/ha) was 0.0, the “Preemergence herbicidal rating ECHCG” value (ECHCG (Barnyardgrass) [2]; rate 0.0313 kg/ha) was 0.0 and the “Preemergence herbicidal rating ECHCG” value (ECHCG (Barnyardgrass) [2]; rate 0.0625 kg/ha) was 0.0. For the same compound, the “Preemergence herbicidal rating ECHCG” value (ECHCG (Barnyardgrass) [2]; rate 0.1250 kg/ha) was 0.0, the “Preemergence herbicidal rating ECHCG” value (ECHCG (Barnyardgrass) [2]; rate 0.2500 kg/ha) was 0.5 and the “Preemergence herbicidal rating ECHCG” value (ECHCG (Barnyardgrass) [2]; rate 0.5000 kg/ha) was 2.0. For the same compound, the “Postemergence herbicidal rating AMBEL” value (AMBEL (Ragweed, Common); Rate 0.0158 kg/ha) was 7.0, the “Postemergence herbicidal rating AMBEL” value (AMBEL (Ragweed, Common); Rate 0.0315 kg/ha) was 9.0 and the “Postemergence herbicidal rating AMBEL” value (AMBEL (Ragweed, Common); Rate 0.0630 kg/ha) was 9.0. For the same compound, the “Preemergence herbicidal rating GALAP” value (GALAP (Galium); rate 0.0156 kg/ha) was 0.0, the “Preemergence herbicidal rating GALAP” value (GALAP (Galium); rate 0.0313 kg/ha) was 0.0 and the “Preemergence herbicidal rating GALAP” value (GALAP (Galium); rate 0.0625 kg/ha) was 0.0. For the same compound, the “Preemergence herbicidal rating GALAP” value (GALAP (Galium); rate 0.1250 kg/ha) was 0.0, the “Preemergence herbicidal rating GALAP” value (GALAP (Galium); rate 0.2500 kg/ha) was 0.0 and the “Preemergence herbicidal rating IPOHE” value ([3]; rate 0.0156 kg/ha) was 0.0. For the same compound, the “Preemergence herbicidal rating IPOHE” value ([3]; rate 0.0313 kg/ha) was 0.0, the “Preemergence herbicidal rating IPOHE” value ([3]; rate 0.0625 kg/ha) was 0.0 and the “Preemergence herbicidal rating IPOHE” value ([3]; rate 0.1250 kg/ha) was 2.0. The “Preemergence herbicidal rating IPOHE” value ([3]; rate 0.2500 kg/ha) was 5.0, the “Preemergence herbicidal rating IPOHE” value ([3]; rate 0.5000 kg/ha) was 9.0 and the “Herbicidal rating ECHORC” value ([4]; Rate 0.0313 kg/ha) was 7.0. The “Herbicidal rating ECHORC” value ([4]; Rate 0.0625 kg/ha) was 9.0, the “Herbicidal rating ECHORC” value ([4]; Rate 0.1250 kg/ha) was 9.0 and the “Herbicidal rating ECHORC” value ([4]; Rate 0.2500 kg/ha) was 9.0. For the same compound, the “Postemergence herbicidal rating ABUTH” value (ABUTH (Velvetleaf); Rate 0.0158 kg/ha) was 9.0, the “Postemergence herbicidal rating ABUTH” value (ABUTH (Velvetleaf); Rate 0.0315 kg/ha) was 9.0 and the “Postemergence herbicidal rating ABUTH” value (ABUTH (Velvetleaf); Rate 0.0630 kg/ha) was 9.0. The “Postemergence herbicidal rating GLXMAW” value ([5]; Rate 0.0158 kg/ha) was 6.5, the “Postemergence herbicidal rating GLXMAW” value ([5]; Rate 0.0315 kg/ha) was 6.5 and the “Postemergence herbicidal rating GLXMAW” value ([5]; Rate 0.0630 kg/ha) was 7.0. The “Postemergence herbicidal rating IPOHE” value ([6]; Rate 0.0158 kg/ha) was 9.0, the “Postemergence herbicidal rating IPOHE” value ([6]; Rate 0.0315 kg/ha) was 9.0 and the “Postemergence herbicidal rating IPOHE” value ([6]; Rate 0.0630 kg/ha) was 9.0. The “Preemergence herbicidal rating CHEAL” value ([7]; rate 0.0156 kg/ha) was 9.0, the “Preemergence herbicidal rating CHEAL” value ([7]; rate 0.0313 kg/ha) was 8.0 and the “Preemergence herbicidal rating CHEAL” value ([7]; rate 0.0625 kg/ha) was 9.0. For the same compound, the “Preemergence herbicidal rating CHEAL” value ([7]; rate 0.1250 kg/ha) was 9.0, the “Preemergence herbicidal rating CHEAL” value ([7]; rate 0.2500 kg/ha) was 9.0 and the “Preemergence herbicidal rating CHEAL” value ([7]; rate 0.5000 kg/ha) was 9.0. For the same compound, the “Preemergence herbicidal rating ZEAMX” value (ZEAMX (Corn, Field); rate 0.0156 kg/ha) was 0.0, the “Preemergence herbicidal rating ZEAMX” value (ZEAMX (Corn, Field); rate 0.0313 kg/ha) was 0.0 and the “Preemergence herbicidal rating ZEAMX” value (ZEAMX (Corn, Field); rate 0.0625 kg/ha) was 0.5. For the same compound, the “Preemergence herbicidal rating ZEAMX” value (ZEAMX (Corn, Field); rate 0.1250 kg/ha) was 1.5, the “Preemergence herbicidal rating ZEAMX” value (ZEAMX (Corn, Field); rate 0.2500 kg/ha) was 3.0 and the “Preemergence herbicidal rating ZEAMX” value (ZEAMX (Corn, Field); rate 0.5000 kg/ha) was 8.0. The “Postemergence herbicidal rating ECHCG” value (ECHCG (Barnyardgrass) [8]; Rate 0.0158 kg/ha) was 0.0, the “Postemergence herbicidal rating ECHCG” value (ECHCG (Barnyardgrass) [8]; Rate 0.0315 kg/ha) was 0.0 and the “Postemergence herbicidal rating ECHCG” value (ECHCG (Barnyardgrass) [8]; Rate 0.0630 kg/ha) was 0.0.
